Experimental data taken from US20080051463A1, “ANTHRACENE COMPOUNDS AND THEIR USE FOR TREATING BENIGN AND MALIGNANT TUMOR DISORDERS” (AETERNA ZENTARIS GmbH, priority 2006, published 2008).
Values after ≈ are worked out from the molar mass of the structure shown. Values joined by “and” are separate entries in the source; they are usually repeats but may differ in a detail not shown here. Equal values may be shown once.

How the values were obtained:
[1] = tested on: RKOp27 human colon carcinoma cells; experiment: Proliferation test, RKOp27 cell system without p27kiP1 expression; type: cell-based; conditions: RKOp27 without expression of p27kiP1
Excerpt: (§1) The antiproliferative activity of the compounds 1, 2, 4, 6, 7, 9, 10, 11, 12 and 13 according to the invention was investigated in a proliferation test performed on established tumor cell lines (D. A. Scuderio et al. Cancer Res. 1988, 48: 4827-4833).
(§2) The test used determines the cellular dehydrogenase activity and makes it possible to determine cell viability and determine cell number indirectly.
(§3) The cell lines used are the human cervical carcinoma cell line KB/HeLa (ATCC CCL17), the ovarian adenocarcinoma cell line SKOV-3 (ATCC HTB77), the human glioblastoma cell line SF-268 (NCI-503138) and the lung carcinoma cell line NCI-H460 (NCI-503473). In addition, an RKOp27 cell system was used for investigating the cell cycle-specific effect of the substance (M. Schmidt et al. Oncogene 2000, 19(20): 2423-9).
(§4) RKO is a human colon carcinoma line in which expression of the cell cycle inhibitor p27^kiP1 can be induced using the ecdysone expression system and lead to cell cycle arrest specifically in […].
(§5) By contrast, cell cycle-specific substances, such as, for example, tubulin inhibitors, are only cytotoxic when cells are not arrested and the cell cycle is passed through.

[2] = tested on: human cervical carcinoma cell line KB/HeLa; experiment: Proliferation test (cellular dehydrogenase activity), KB/HeLa; type: cell-based
Excerpt: as §1, §2, §3

bovine tubulin = experiment: Inhibition of the polymerization of bovine tubulin (in vitro); type: biochemical; conditions: for Inhibition at 10 μg/ml [%]: tubulin with 30% associated proteins (MAPs), repeat values
Excerpt: In this test, tubulin purified by polymerization and depolymerization cycles is used, which is polymerized by addition of GTP and heating.
Table 1 states the %-inhibition values and Table 2 states the EC50 values of polymerization inhibition of tubulin with 30% associated proteins (MAPs).

[3] = tested on: RKOp27 human colon carcinoma cells, p27kiP1 induced; experiment: Proliferation test, RKOp27 cell system with induced p27kiP1 expression; type: cell-based; conditions: RKOp27 with induced expression of p27kiP1, read-out: RKOP27ind EC50
Excerpt: as §1, §2, §3, §4, §5

[4] = tested on: lung carcinoma cell line NCI-H460; experiment: Proliferation test (cellular dehydrogenase activity), NCI-H460; type: cell-based; conditions: Homo sapiens
Excerpt: as §1, §2, §3

[5] = tested on: ovarian adenocarcinoma cell line SKOV-3; experiment: Proliferation test (cellular dehydrogenase activity), SK-OV-3; type: cell-based; conditions: Homo sapiens
Excerpt: as §1, §2, §3

[6] = tested on: human glioblastoma cell line SF-268; experiment: Proliferation test (cellular dehydrogenase activity), SF-268; type: cell-based
Excerpt: as §1, §2, §3

KB/HeLa cells = experiment: Cell cycle analysis (G2/M arrest) in KB/HeLa cells; type: cell-based; conditions: Homo sapiens, 24 h, 24 hours at 37° C., 0.1-1000 nM, read-out: EC50 [nM] (50% cells in G2/M)
Experimental: For the cell cycle analysis, KB/HeLa cells (ATCC CCL17) were treated with different concentrations (0.1-1000 nM) of the test substances at 37° C. for 24 hours.
The percentage of cells arrested in the G2/M phase of the cell cycle after treatment with compounds according to the invention and selected reference substances is shown in Table 9 below. The results were analysed using special analytical software (ModFit™).

Row | SMILES | EC50 [1] | melting point | EC50 [2] | EC50 [3] | EC50 [4] | Inhibition at 10 μg/ml [%] (bovine tubulin) | further results
1 | O=C(C=C1c2ccccc2C(=O)c2ccccc21)c1cccs1 [Compound 11, 10-(2-oxo-2-thiophen-2-yl-ethylidene)-10H-anthracen-9-one] | – | 126 °C | 2.65 µg/mL (≈ 8.38 µM) | > 3.16 µg/mL | 1.05 µg/mL (≈ 3.32 µM) | – | –
2 | O=C(C=C1c2ccccc2C(=O)c2ccccc21)c1cccc(O)c1 [Compound 12, 10-[2-(3-hydroxy-phenyl)-2-oxo-ethylidene]-10H-anthracen-9-one] | 0.63 µg/mL (≈ 1.93 µM) | 185 °C | 1.4 µg/mL (≈ 4.29 µM) | > 3.16 µg/mL | 0.61 µg/mL (≈ 1.87 µM) | 83.1% and 95.0% and 92.7% and 86.9% | EC50 [5]: 3.03 µg/mL (≈ 9.28 µM); EC50 [6]: 2.22 µg/mL (≈ 6.8 µM)
3 | COC(=O)C=C1c2ccccc2C(=O)c2ccccc21 [Compound 15, (10-oxo-10H-anthracen-9-ylidene)-acetic acid methyl ester] | – | 113 °C | – | – | – | – | –
4 | COc1cc(C(=O)C=C2c3ccccc3C(=O)c3ccccc32)cc(OC)c1OC [Compound 16, 10-[2-oxo-2-(3,4,5-trimethoxy-phenyl)-ethylidene]-10H-anthracen-9-one] | – | 151 to 152 °C | – | – | – | 65.0% and 65.5% and 61.9% | –
5 | O=C(O)C=C1c2ccccc2C(=O)c2ccccc21 [Compound 17, (10-oxo-10H-anthracen-9-ylidene)-acetic acid] | – | 180 to 182 °C | – | – | – | – | –
6 | CC(=O)O[C@H]1C(=O)[C@@]2(C)[C@H]([C@H](OC(=O)c3ccccc3)[C@]3(O)C[C@H](OC(=O)[C@H](O)[C@@H](NC(=O)c4ccccc4)c4ccccc4)C(C)=C1C3(C)C)[C@]1(OC(C)=O)CO[C@@H]1C[C@@H]2O [Paclitaxel] | – | – | – | – | – | – | EC50 (KB/HeLa cells): 26.9 nM

Continued, in another order:

Row | EC50 [1] | melting point | EC50 [2] | EC50 [3] | EC50 [4] | SMILES | Inhibition at 10 μg/ml [%] (bovine tubulin) | further results
7 | 1.38 µg/mL (≈ 4.23 µM) | 211 to 212 °C | 2.65 µg/mL (≈ 8.12 µM) | > 3.16 µg/mL | 1.34 µg/mL (≈ 4.11 µM) | O=C(C=C1c2ccccc2C(=O)c2ccccc21)c1ccc(O)cc1 [Compound 10, 10-[2-(4-hydroxy-phenyl)-2-oxo-ethylidene]-10H-anthracen-9-one] | 85.0% and 94.8% and 98.4% and 98.6% | EC50 of polymerization inhibition of tubulin (bovine tubulin; bovine tubulin with 30% associated proteins (MAPs)): 4.87 µg/mL
8 | 1.1 µg/mL (≈ 3.23 µM) | – | 1.89 µg/mL (≈ 5.55 µM) | > 3.16 µg/mL | 1.16 µg/mL (≈ 3.41 µM) | COc1cccc(C(=O)C=C2c3ccccc3C(=O)c3ccccc32)c1 [Compound 13, 10-[2-(3-methoxy-phenyl)-2-oxo-ethylidne]-10H-anthracen-9-one] | 72.6% and 85.9% and 87.3% and 93.7% | –
9 | – | 128 °C | – | – | – | O=C(C=C1c2ccccc2C(=O)c2ccccc21)c1ccccc1 [Compound 18, 10-(2-oxo-2-phenyl-ethylidene)-10H-anthracen-9-one] | 54.9% and 69.9% and 79.8% and 71.0% | –
